What was measured:
[1] = system: S. salivarius HSISS4 derivatives; test: Competence development (natural transformation frequency); type: cell-based, Streptococcus salivarius
Protocol: To induce competence, overnight CDMG precultures were diluted at a final OD600 of 0.05 in 300 μl (10 ml concerning the randomized peptide screen) of fresh CDMG and incubated 75 min at 37° C. Then, we added the pheromone sComS as well as DNA (overlapping PCRs or plasmids) and let the cells recover for 3 h at 37° C. before plating on M17G agar supplemented with antibiotics where required. Null-mutants were constructed by exchanging (double homologous recombination) the coding sequences (CDS) of target genes (sequence between start and stop codons) for either chloramphenicol or erythromycin resistance cassette. If stated, mutants were cleaned for the lox site-flanked resistance cassette, as previously described (Fontaine et al. Mol Microbiol 2010; 87:1113-1132). In case of deletion of multiple CDSs, the region between the start codon of the first CDS and the stop codon of the last CDS was deleted. Integration of the antibiotic resistance cassette at the right location was subsequently checked by PCR. The promoters of sptA genes was fused to the luxAB reporter genes and inserted with a chloramphenicol resistance cassette at the permissive tRNA threonine locus (HSISS4_r00061) by double homologous recombination. In case of ΔscuR and ΔsarF in-frame deletion, we used the two-step selection/counter-selection strategy previously described (Mignolet et al. Cell Rep 2018, 22:1627-1638). We transformed the wild-type strain with an overlapping PCR product composed of 4 fragments: (I) the upstream region of scuR or sarF genes, (II) the downstream region of scuR or sarF genes, (III) a cassette that includes the erythromycin resistance gene (erm) and a gene encoding the orotate transporter oroP, and finally (IV) the downstream region of scuR or sarF genes. We selected a first event of double recombination on medium supplemented with erythromycin. Next, we selected an intramolecular recombination between region (I) and (IV) that excises the erm-oroP cassette by growing cells on M17G supplemented with the toxic 5-fluoro-orotic acid (5-FOA) compound. In […] of oroP, 5-FOA is not able to cross the membrane and penetrate the cytoplasm where it is deleteriously incorporated in the nucleotide metabolic pathway (Overkamp et al., 2013). At final, we engineered an in-frame deletion mutant of scuR or sarF in which the first seven codons were fused to the last six codons without any cassette scar (see below for detailed cloning method).

[2] = system: slvX promoter (PslvX); test: Luciferase (luxAB) promoter activity of PslvX with synthetic peptides; type: cell-based, Streptococcus salivarius HSISS4
Protocol: (§1) Overnight precultures were diluted at a final OD600 of 0.05. A volume of 300 μl of culture samples was incubated in the wells of a sterile covered white microplate with a transparent bottom (Greiner, Alphen a/d Rijn, The Netherlands) for 75 min at 37° C. and then supplemented with synthetic peptides (1 μM, except if otherwise stated) or DMSO, and xylose where required. Growth (OD600) and luciferase (Lux) activity (expressed in relative light units) was monitored at 10 min intervals during 24 h in a multi-wells plate reader (Hidex Sense, Hidex, Turku, Finland) as previously described (Fontaine et al., 2013).

[3] = system: ScuR; test: Mobility shift assay (EMSA) of promoter probes with purified ScuR and synthetic peptide; type: binding, Streptococcus salivarius; details: FIG. 4A
Protocol: All double-stranded DNA fragments (30 or 40 bp) were obtained from annealing of single-stranded Cy3-labelled (at 5′ end) and unlabeled oligonucleotides. Typically, a gel shift reaction (20 μl) was performed in a binding buffer (20 mM Tris-HCl pH 8.0, 150 mM NaCl, 1 mM EDTA, 1 mM DTT, 10% glycerol, 1 mg ml-1 BSA) and contained 150 ng labelled probe and […] StrepTag proteins. When necessary, […] of ComS peptides (unless otherwise stated) are added. The reaction is incubated at 37° C. for 10 min prior to loading of the samples on a native TBE 5% gel. The gel is next subjected to 80 V for approximately 1 h in TBE buffer. DNA complexes were detected by fluorescence on the Ettan DIGE Imager with bandpass excitation filters (nm): 540/25 (Cy3) or 635/30 (Cy5) and bandpass emission filters: 595/25 (Cy3) or 680/30 (Cy5) (GE Healthcare, Waukesha, WI).
The PCR-amplified scuR-StrepTag and gene sarF-StrepTag were cloned into the pBAD-comR-ST vector (see supplemental information). The ComR-StrepTag, ScuR-StrepTag and SarF-StrepTag recombinant proteins were overproduced in E. coli and purified as previously described (Fontaine et al., 2013) in standard native conditions on Strep-Tactin agarose beads (IBA).

[4] = system: sptA promoter (PsptA), ScuR/SarF system; test: Luciferase (luxAB) promoter activity of PsptA with exogenous synthetic peptides; type: cell-based, Streptococcus salivarius HSISS4
Protocol: as §1

[5] = system: comX promoter (PcomX) and ComX-dependent promoters; test: Luciferase (luxAB) activity of PcomX and ComX-dependent late competence promoters; type: cell-based, Streptococcus salivarius HSISS4; details: 1 μM; FIG. 9
Protocol: as §1

[6] = system: S. salivarius producer strains; indicator strain Lactococcus lactis IL1403; test: Bacteriocin detection assay (spot-on lawn, multilayer); type: cell-based, Streptococcus salivarius; details: FIG. 5B
Protocol: The spot-on lawn (multilayer) detection method was performed as followed: 10 μl of overnight cultures of producer strains were diluted in fresh M17G medium and grown to reach mid-log phase (OD600=˜0.5). In parallel, we casted plates with a bottom feeding layer (M17G 1.5% agar) supplemented with a synthetic peptide where required. Next, we mixed 100 μl of an overnight culture of Lactococcus lactis IL1403 (indicator strain) in pre-warmed soft M17G medium (0.3% agar) and casted it as a top layer. Finally, we incubated mid-log phase cultures for 30 minutes with the corresponding synthetic peptides and spotted 3 μl of the producer strains on the top layer. Plates were incubated overnight before analysis of the inhibition zones surrounding the producer colonies.

[7] = system: comS promoter (PcomS); test: Luciferase (luxAB) promoter activity of PcomS with synthetic peptides; type: cell-based, Streptococcus salivarius HSISS4
Protocol: as §1

[8] = WT background, dose response FIG. 3D
[9] = ΔscuR strain (SarF only), FIG. 3D

## sBI7: synthetic peptide: last 8 amino acids of the clone BI7 peptide MIAILPFWLILG (sBI7)
[1]; Table 6
  support of natural transformation: ineffective to support natural transformation
[1]; Wild-type strain, ratio of transformants (chloramphenicol-resistant CFU) to total CFU count per 0.1 ug of linear DNA
  Competence development (transformation frequency): ND (ND: not detected (<1.0E−08))
[1]; ΔsarF strain, ratio of transformants to total CFU count per 0.1 ug of linear DNA
  Competence development (transformation frequency): ND (ND: not detected (<1.0E−08))
[1]; ΔscuR strain, ratio of transformants to total CFU count per 0.1 ug of linear DNA
  Competence development (transformation frequency): ND (ND: not detected (<1.0E−08))
[2]; [8]
  peptide concentration to which PslvX is responsive: less than 1 nM
[2]; [9]
  PslvX activity upon sBI7 induction in ΔscuR: no activity in ΔscuR
[3]
  ScuR·sBI7 affinity for PcomS and PslvX in comparison to sComS-bound ComR: appears weaker with a less stable complex
[3]; ScuR 4 μM, peptide 2:2 dilutions from 20 μM
  peptide concentration from which ScuR shifts the PsptA probe: ≥ 0.08 nM
[3]; with sBI7
  ScuR affinity for PcomS probe: weakest affinity
  ScuR affinity for PsptA probe: strongest one
[4]; WT background, FIG. 3D
  amplitude of PsptA response compared with PslvX and PcomS: highest amplitude
[4]; [8]
  peptide concentration to which PsptA is responsive: less than 1 nM
[4]; ΔsarF strain, FIG. 3D
  activity of all promoters (PsptA, PslvX, PcomS) in ΔsarF compared to WT: slightly up compared to the WT
[4]; ΔscuR strain, FIG. 3D
  SarF-mediated PsptA response: able to induce the SarF-mediated PsptA response
[4]; ΔscuR-sarF, FIG. 3F
  induction of sptA, comS and slvX promoters in ΔscuR-sarF double mutant: utterly erased
[5]
  activation of comX and late competence genes under direct ComX control: cannot activate
[6]; WT strain, sBI7 concentration ranging from 1 nM to 1 μM, indicator L. lactis
  halo of inhibition around producer strain: small halo of inhibition
[6]; single ΔscuR, double ΔscuR-sarF or Δslv5 strains
  halo of inhibition in mutant producer strains: eradicated
[7]; WT background, FIG. 3D
  amplitude of PcomS response compared with PsptA and PslvX: lowest
[7]; [8]
  peptide concentration to which PcomS is responsive: less than 1 nM
[7]; [9]
  PcomS activity upon sBI7 induction in ΔscuR: no activity in ΔscuR

From patent publication US12234299B2, “Peptides for inducing bacteriocin synthesis and methods to identify and/or select and/or optimize the same” (SYNGULON S.A., priority 2018, dated 2025)
